Experimental data reported in US20230346827A1 (priority 2020, published 2023).

Tested on: rats subjected to sTBI
Assay: sTBI rats, LMW-DS 1, 5, 15 mg/kg s.c. 30 min post-TBI: HPLC of brain energy metabolites, antioxidants, oxidative/nitrosative stress biomarkers (Example 4)
Format: in vivo, rat
Settings: 1 mg/kg
Procedure: Male Wistar rats (n=160) of 300-350 g body weight were used in this study. They were fed with standard laboratory diet and water ad libitum in a controlled environment.
As the accepted anesthetic mixture, animals received 35 mg/kg b.w. ketamine and 0.25 mg/kg body weight midazolam by intramuscular injection. Diffuse sTBI was induced according to the “weight drop” impact acceleration model set up by Marmarou et al. J. Neurosurg. 1994, 80: 291-300. This model causes diffuse axonal injury and it is able to reproduce the physical and mechanical characteristics of the diffuse TBI in humans.
Severe TBI was induced by dropping a 450 g weight from 2 meters height onto the rat head protected by a helmet (metal disk previously fixed on the skull using dental cement) in order to uniformly distribute the mechanical force to the brain. Rats were placed prone on a bed of specific polyurethane foam inserted in a special container; this foam dissipates the major part of the potential energy (deriving from the mechanical forces) and prevents any rebound of the animal after the impact that could produce spinal damages.
After 2 or 7 days from TBI induction, rats were anesthetized again and then immediately sacrificed. These time points are coincident with the worst biochemical derangement (2 days) or, in the case of a mildly injured brain, with a full metabolic recovery (7 days).
The drug treatment consisted in a subcutaneous injection of 0.5 ml of LMW-DS (ILB®, Tikomed, Viken, Sweden, WO 2016/076780) and administered at 3 different concentrations (1, 5 and 15 mg/kg body weight), according to the schematic protocol described below. Sham-operated animals underwent the same procedure of anesthesia but TBI and were used as the control group.
(§1) Rats subjected to sTBI and receiving a single administration of LMW-DS after 30 minutes post-TBI, with sacrifice at 2 days post-TBI. Animals were divided in the following subgroups: • 1. 12 animals subjected to sTBI and treated with 1 mg/kg b.w. LMW-DS • 2. 12 animals subjected to sTBI and treated with 5 mg/kg b.w. LMW-DS • 3. 12 animals subjected to sTBI and treated with 15 mg/kg b.w. LMW-DS
as §1, with “at 7” for “at 2”
Rats (n = 12) subjected to sTBI and receiving repeated administrations of the maximal dose of LMW-DS (15 mg/kg b.w.) after 30 minutes, 3 days and 5 days post-TBI, with sacrifice at 7 days post-TBI. Four additional rats were used for the histo-morphological studies. Total rats in this group: n=16
To minimize metabolite loss, an in vivo craniectomy was performed in all animals during anesthesia. The rat skull was carefully removed, the brain was exposed, sharply cut along the sagittal fissure and the two hemispheres were separated. The hemispheres dedicated to biochemical analyses were freeze-clamped by aluminum tongues pre-cooled in liquid nitrogen and then immersed in liquid nitrogen. The freeze-clamping procedure was introduced to accelerate freezing of the tissue, thus minimizing potential metabolite loss.
Tissue homogenization for metabolite analyses was effected as described below. After the wet weight (w.w.) determination, the frozen hemispheres were placed into 7 ml of ice-cold, nitrogen-saturated, precipitating solution (1:10 w/v) composed by CH3CN + 10 mM KH2PO4, pH 7.40, (3:1; v:v), and the homogenization was performed using an Ultra-Turrax homogenizer set at 24,000 rpm/min (Janke & Kunkel, Staufen, Germany). […]

sodium salt of dextran sulfate [LMW-DS] showed an ADENOSINE (2 d post-sTBI) of 68.91 ± 16.50 nmol/g w.w, an ADP (2 d post-sTBI) of 333.90 ± 28.72 nmol/g w.w and an ADP-Ribose (2 d post-sTBI) of 25.69 ± 5.16 nmol/g w.w. The AMP (2 d post-sTBI) was 62.04 ± 7.46 nmol/g w.w, the “ASCORBIC ACID” value (2 d post-sTBI) was 2567.35 ± 147.76 nmol/g w.w and the ATP (2 d post-sTBI) was 1696.96 ± 99.43 nmol/g w.w. For the same substance, the Acetyl-CoA (2 d post-sTBI) was 27.74 ± 3.23 nmol/g w.w, the CDP choline (2 d post-sTBI) was 8.23 ± 1.22 nmol/g w.w and the CMP (2 d post-sTBI) was 29.39 ± 6.00 nmol/g w.w. It also gave a CREATININE (2 d post-sTBI) of 17.66 ± 3.29 nmol/g w.w, a CTP (2 d post-sTBI) of 33.01 ± 7.63 nmol/g w.w and a CYTIDINE (2 d post-sTBI) of 13.79 ± 2.49 nmol/g w.w. The CYTOSINE (2 d post-sTBI) was 13.47 ± 1.65 nmol/g w.w, the CoA-SH (2 d post-sTBI) was 9.42 ± 1.04 nmol/g w.w and the GDP (2 d post-sTBI) was 189.85 ± 26.23 nmol/g w.w. The “GDP Glucose” value (2 d post-sTBI) was 65.66 ± 41.61 nmol/g w.w, the GMP (2 d post-sTBI) was 205.06 ± 25.74 nmol/g w.w and the GSH (2 d post-sTBI) was 2337.06 ± 340.81 nmol/g w.w. The GTP (2 d post-sTBI) was 169.98 ± 17.93 nmol/g w.w, the GUANINE (2 d post-sTBI) was 1.62 ± 0.41 nmol/g w.w and the GUANOSINE (2 d post-sTBI) was 16.46 ± 2.73 nmol/g w.w. The HYPOXANTHINE (2 d post-sTBI) was 4.02 ± 0.66 nmol/g w.w, the IMP (2 d post-sTBI) was 45.97 ± 8.65 nmol/g w.w and the INOSINE (2 d post-sTBI) was 113.85 ± 14.84 nmol/g w.w. The MDA (2 d post-sTBI) was 44.00 ± 7.17 nmol/g w.w, the Malonyl-CoA (2 d post-sTBI) was 19.06 ± 4.04 nmol/g w.w and the NADH (2 d post-sTBI) was 9.42 ± 1.38 nmol/g w.w. For the same substance, the NADPH (2 d post-sTBI) was 13.07 ± 1.09 nmol/g w.w, the “NADP^+” value (2 d post-sTBI) was 11.79 ± 2.70 nmol/g w.w and the “NAD^+” value (2 d post-sTBI) was 325.87 ± 55.47 nmol/g w.w. For the same substance, the NO2 (2 d post-sTBI) was 158.36 ± 19.08 nmol/g w.w, the NO3 (2 d post-sTBI) was 99.16 ± 21.58 nmol/g w.w and the UDP (2 d post-sTBI) was 83.06 ± 8.52 nmol/g w.w. For the same substance, the UDP-Gal (2 d post-sTBI) was 118.50 ± 9.89 nmol/g w.w, the “UDP-GalNac” value (2 d post-sTBI) was 21.24 ± 3.13 nmol/g w.w and the UDP-Glc (2 d post-sTBI) was 45.14 ± 6.68 nmol/g w.w. For the same substance, the UDP-GlcNac (2 d post-sTBI) was 96.62 ± 8.80 nmol/g w.w, the UMP (2 d post-sTBI) was 148.04 ± 20.45 nmol/g w.w and the URACIL (2 d post-sTBI) was 17.18 ± 3.36 nmol/g w.w. The “URIC ACID” value (2 d post-sTBI) was 52.42 ± 10.75 nmol/g w.w, the URIDINE (2 d post-sTBI) was 79.93 ± 14.07 nmol/g w.w and the UTP (2 d post-sTBI) was 104.07 ± 16.34 nmol/g w.w. For the same substance, the XANTHINE (2 d post-sTBI) was 13.79 ± 1.43 nmol/g w.w, the β-PSEUDOURIDINE (2 d post-sTBI) was 11.64 ± 2.3 nmol/g w.w and the “NAD^+/NADH” value (2 d post-sTBI, adimensional ratio) was 33.91 ± 9.32. It also gave an ADENOSINE (7 d post-sTBI) of 26.08 ± 19.31 nmol/g w.w, an ADP (7 d post-sTBI) of 286.78 ± 38.19 nmol/g w.w and an ADP-Ribose (7 d post-sTBI) of 7.95 ± 1.99 nmol/g w.w. The AMP (7 d post-sTBI) was 43.13 ± 3.39 nmol/g w.w, the “ASCORBIC ACID” value (7 d post-sTBI) was 2177.22 ± 262.21 nmol/g w.w and the ATP (7 d post-sTBI) was 1792.01 ± 144.16 nmol/g w.w. For the same substance, the Acetyl-CoA (7 d post-sTBI) was 27.05 ± 4.61 nmol/g w.w, the CDP choline (7 d post-sTBI) was 6.26 ± 2.01 nmol/g w.w and the CMP (7 d post-sTBI) was 25.41 ± 10.81 nmol/g w.w. The CREATININE (7 d post-sTBI) was 6.57 ± 1.16 nmol/g w.w, the CTP (7 d post-sTBI) was 81.75 ± 31.55 nmol/g w.w and the CYTIDINE (7 d post-sTBI) was 29.67 ± 10.44 nmol/g w.w. It also gave a CYTOSINE (7 d post-sTBI) of 16.03 ± 3.44 nmol/g w.w, a CoA-SH (7 d post-sTBI) of 38.50 ± 4.94 nmol/g w.w and a GDP (7 d post-sTBI) of 121.72 ± 13.91 nmol/g w.w. The “GDP Glucose” value (7 d post-sTBI) was 112.22 ± 13.13 nmol/g w.w, the GMP (7 d post-sTBI) was 113.06 ± 53.51 nmol/g w.w and the GSH (7 d post-sTBI) was 1627.30 ± 214.51 nmol/g w.w. For the same substance, the GTP (7 d post-sTBI) was 438.65 ± 39.88 nmol/g w.w, the GUANINE (7 d post-sTBI) was 6.86 ± 2.92 nmol/g w.w and the GUANOSINE (7 d post-sTBI) was 19.11 ± 3.98 nmol/g w.w. For the same substance, the HYPOXANTHINE (7 d post-sTBI) was 16.97 ± 4.94 nmol/g w.w, the IMP (7 d post-sTBI) was 80.16 ± 20.53 nmol/g w.w and the INOSINE (7 d post-sTBI) was 124.27 ± 13.94 nmol/g w.w. It also gave an MDA (7 d post-sTBI) of 32.98 ± 5.44 nmol/g w.w, a Malonyl-CoA (7 d post-sTBI) of 5.43 ± 0.98 nmol/g w.w and an NADH (7 d post-sTBI) of 8.20 ± 1.41 nmol/g w.w. The NADPH (7 d post-sTBI) was 18.91 ± 4.39 nmol/g w.w, the “NADP^+” value (7 d post-sTBI) was 39.94 ± 14.65 nmol/g w.w and the “NAD^+” value (7 d post-sTBI) was 268.14 ± 37.97 nmol/g w.w. For the same substance, the NO2 (7 d post-sTBI) was 93.04 ± 20.16 nmol/g w.w, the NO3 (7 d post-sTBI) was 153.62 ± 26.24 nmol/g w.w and the UDP (7 d post-sTBI) was 38.59 ± 5.43 nmol/g w.w. It also gave a UDP-Gal (7 d post-sTBI) of 130.20 ± 8.95 nmol/g w.w and a UDP-GalNac (7 d post-sTBI) of 15.85 ± 4.54 nmol/g w.w.
